Key:
[1] = test system: HCT-116 cells (colon cancer); assay: MTT cell viability assay, 72 h, HCT-116; assay type: cell-based, human; conditions: MTT assay, 72 h incubation, mean ± SD
Protocol: (§1) Compounds 7–36 and 47–54 were tested regarding their effect on growth of three human cancer cell lines: colon cancer HCT-116, breast cancer MCF-7 and cervical cancer HeLa, as well as on noncancerous keratinocyte cell line HaCaT. Cell viability was measured with MTT assay after 72 h of incubation with tested compound in five concentration 1–100 μM. The MTT test enables us to quantify the living cells by measuring the activity of mitochondrial enzymes, enables reducing tetrazolium dye MTT to purple formazan. In this manner, IC50—molar concentration [µM] that inhibits 50% net cell growth—was determined (Table 1 and Table 2).
(§2) All chemicals, if not stated otherwise, were obtained from Sigma-Aldrich (St. Louis, MO, USA). The MCF-7, HeLa and HaCaT cell lines were purchased from Cell Lines Services (Eppelheim, Germany), the HCT-116 cell line were obtained from ATCC (ATCC-No: CCL-247). Cells were cultured in Dulbecco’s modified Eagle’s medium (DMEM) supplemented with 10% fetal bovine serum, 2 mM glutamine, 100 units/mL penicillin, and 100 μg/mL streptomycin. Cultures were maintained in a humidified atmosphere with 5% CO2 at 37 °C in an incubator (HeraCell, Heraeus, Langenselbold, Germany). Cell viability was determined using the MTT [3-(4,5-dimethylthiazol-2-yl)-2,5-diphenyl-tetrazolium bromide] assay. Stock solutions of the studied compounds were obtained in 100% DMSO. […] Cells were seeded in 96-well plates at a density of 5 × 10^3 cells/well and treated for 72 h with the examined compounds in the concentration range 1–100 μM (1, 10, 25, 50 and 100 μM). Following treatment, MTT (0.5 mg/mL) was added to the medium and cells were further incubated for 2 h at 37 °C. Cells were lysed with DMSO and the absorbance of the formazan solution was measured at 550 nm with a plate reader Victor 1420 multilabel counter, (PerkinElmer, Inc. Waltham, MA USA). […] The experiment was performed in triplicate. Values are expressed as the mean ± SD of at least three independent experiments

[2] = test system: MCF-7 cells (breast cancer); assay: MTT cell viability assay, 72 h, MCF-7; assay type: cell-based, human; conditions: MTT assay, 72 h incubation, mean ± SD
Protocol: as §1, §2

[3] = test system: HeLa cells (cervical cancer); assay: MTT cell viability assay, 72 h, HeLa; assay type: cell-based, human; conditions: MTT assay, 72 h incubation, mean ± SD
Protocol: as §1, §2

[4] = test system: HaCaT noncancerous keratinocyte cell line; assay: MTT cell viability assay, 72 h, HaCaT; assay type: cell-based; conditions: for IC50: Homo sapiens, HaCaT, MTT assay, 72 h incubation, mean ± SD; for activity against HaCaT compared with cancer lines: in words
Protocol: as §1, §2

Row | SMILES | IC50 ([1]; Homo sapiens, HCT-116, 72 h) [µM] | IC50 ([2]; Homo sapiens, MCF7, 72 h) [µM] | IC50 ([3]; Homo sapiens, HeLa, 72 h) [µM] | IC50 [1] [µM] | IC50 [2] [µM] | IC50 [3] [µM] | IC50 [4] [µM] | activity against HaCaT compared with cancer lines [4]
1 | NS(=O)(=O)c1cc(-c2nnc(/C=C/c3cccc(Cl)c3)o2)c(Cl)cc1SCc1ccccc1 [Compound 10] |  |  |  |  |  |  |  | at the same level as against cancer lines
2 | NS(=O)(=O)c1cc(-c2nnc(/C=C/c3c(Cl)cccc3Cl)o2)c(Cl)cc1Cl [Compound 13, (E)-2,4-Dichloro-5-(5-(2,6-dichlorostyryl)-1,3,4-oxadiazol-2-yl)benzenesulfonamide] | 16 ± 1 | 92 ± 5 | 25 ± 1 |  |  |  | 95 ± 2 | 
3 | NS(=O)(=O)c1cc(-c2nnc(/C=C/c3ccc(O)cc3)o2)c(Cl)cc1SCc1ccccc1 [Compound 18, (E)-2-(Benzylthio)-4-chloro-5-(5-(4-hydroxystyryl)-1,3,4-oxadiazol-2-yl)benzenesulfonamide] | 18 ± 1 | 59 ± 3 | 18.2 ± 0.5 |  |  |  | 25.6 ± 0.5 | at the same level as against cancer lines
4 | N#Cc1ccc(/C=C/c2nnc(-c3cc(S(N)(=O)=O)c(SCc4ccccc4)cc3Cl)o2)cc1 [Compound 20, (E)-2-(Benzylthio)-4-chloro-5-(5-(4-cyanostyryl)-1,3,4-oxadiazol-2-yl)benzenesulfonamide] | 9 to 12 | 9 to 12 | 9 to 12 | 10.3 ± 0.2 | 8.9 ± 0.5 | 12.2 ± 0.5 | 20 ± 1 | 
5 | NS(=O)(=O)c1cc(-c2nnc(/C=C/c3ccc(C(F)(F)F)cc3)o2)c(Cl)cc1SCc1ccccc1 [Compound 22, (E)-2-(Benzylthio)-4-chloro-5-(5-(4-(trifluoromethyl)styryl)-1,3,4-oxadiazol-2-yl)benzenesulfonamide] | 15.2 ± 0.1 | 30 ± 1 | 33.4 ± 0.5 |  |  |  | 33 ± 1 | 
6 | NS(=O)(=O)c1cc(-c2nnc(/C=C/c3cccnc3)o2)c(Cl)cc1Cl [Compound 25, (E)-2,4-Dichloro-5-(5-(2-(pyridin-3-yl)vinyl)-1,3,4-oxadiazol-2-yl)benzenesulfonamide] | 220 ± 11 | 760 ± 24 | 570 ± 17 |  |  |  |  | 
7 | NS(=O)(=O)c1cc(-c2nnc(/C=C/c3cccnc3)o2)c(Cl)cc1SCc1ccccc1 [Compound 26, (E)-2-(Benzylthio)-4-chloro-5-(5-(2-(pyridin-3-yl)vinyl)-1,3,4-oxadiazol-2-yl)benzenesulfonamide] | 85 ± 5 | 350 ± 17 | 135 ± 4 |  |  |  |  | 
8 | NS(=O)(=O)c1cc(-c2nnc(/C=C/c3ccccn3)o2)c(Cl)cc1Cl [Compound 27, (E)-2,4-Dichloro-5-(5-(2-(pyridin-2-yl)vinyl)-1,3,4-oxadiazol-2-yl)benzenesulfonamide] | 117 ± 4 | 110 ± 2 | 170 ± 5 |  |  |  |  | 
9 | NS(=O)(=O)c1cc(-c2nnc(/C=C/c3cccs3)o2)c(Cl)cc1Cl [Compound 29, (E)-2,4-Dichloro-5-(5-(2-(thiophen-2-yl)vinyl)-1,3,4-oxadiazol-2-yl)benzenesulfonamide] | 108 ± 4 | 175 ± 12 | 245 ± 12 |  |  |  |  | 
10 | NS(=O)(=O)c1ccc(-c2nnc(/C=C/c3ccccc3)o2)cc1 [Compound 47, (E)-4-(5-Styryl-1,3,4-oxadiazol-2-yl)benzenesulfonamide] | 185 ± 11 | 168 ± 8 | 130 ± 7 |  |  |  |  | 
11 | NS(=O)(=O)c1ccc(-c2nnc(/C=C/c3ccc(C(F)(F)F)cc3)o2)cc1 [Compound 50, (E)-4-(5-(4-(Trifluoromethyl)styryl)-1,3,4-oxadiazol-2-yl)benzenesulfonamide] | 155 ± 7 | 280 ± 15 | 520 ± 25 |  |  |  |  | 
12 | Clc1ccc(-c2nnc(/C=C/c3ccccc3)o2)c(Cl)c1 [Compound 51, (E)-2-(2,4-Dichlorophenyl)-5-styryl-1,3,4-oxadiazole] | 92 ± 2 | 125 ± 6 | 190 ± 10 |  |  |  |  | 
13 | Clc1ccc(/C=C/c2nnc(-c3ccc(Cl)cc3Cl)o2)cc1 [Compound 52, (E)-2-(4-Chlorostyryl)-5-(2,4-dichlorophenyl)-1,3,4-oxadiazole] | 64 ± 3 | 110 ± 6 | 215 ± 6 |  |  |  |  | 
14 | N#Cc1ccc(/C=C/c2nnc(-c3ccc(Cl)cc3Cl)o2)cc1 [Compound 53, (E)-4-(2-(5-(2,4-Dichlorophenyl)-1,3,4-oxadiazol-2-yl)vinyl)benzonitrile] | 106 ± 3 | 142 ± 6 | 225 ± 11 |  |  |  |  | 
15 | FC(F)(F)c1ccc(/C=C/c2nnc(-c3ccc(Cl)cc3Cl)o2)cc1 [Compound 54, (E)-2-(2,4-Dichlorophenyl)-5-(4-(trifluoromethyl)styryl)-1,3,4-oxadiazole] | 98 ± 1 | 102 ± 5 | 104 ± 3 |  |  |  |  | 

Continued, in another order:

Row | IC50 ([1]; Homo sapiens, HCT-116, 72 h) [µM] | IC50 ([2]; Homo sapiens, MCF7, 72 h) [µM] | IC50 ([3]; Homo sapiens, HeLa, 72 h) [µM] | IC50 [1] [µM] | IC50 [2] [µM] | IC50 [3] [µM] | SMILES | IC50 [4] [µM] | activity against HaCaT compared with cancer lines [4]
16 | 86 ± 3 | 165 ± 5 | 455 ± 14 |  |  |  | NS(=O)(=O)c1cc(-c2nnc(/C=C/c3ccccc3)o2)c(Cl)cc1Cl [Compound 7, (E)-2,4-Dichloro-5-(5-styryl-1,3,4-oxadiazol-2-yl)benzenesulfonamide] |  | 
17 | 24 ± 1 | 150 ± 10 | 19 ± 1 |  |  |  | NS(=O)(=O)c1cc(-c2nnc(/C=C/c3cccc(Cl)c3)o2)c(Cl)cc1Cl [Compound 9, (E)-2,4-Dichloro-5-(5-(3-chlorostyryl)-1,3,4-oxadiazol-2-yl)benzenesulfonamide] | 98 ± 2 | 
18 | 22 ± 1 | 28 ± 1 | 42 ± 1 |  |  |  | NS(=O)(=O)c1cc(-c2nnc(/C=C/c3ccc(Cl)cc3)o2)c(Cl)cc1Cl [Compound 11, (E)-2,4-Dichloro-5-(5-(4-chlorostyryl)-1,3,4-oxadiazol-2-yl)benzenesulfonamide] | 51 ± 3 | 
19 | 34 ± 1 | 41 ± 1 | 34 ± 2 |  |  |  | NS(=O)(=O)c1cc(-c2nnc(/C=C/c3ccc(Br)cc3)o2)c(Cl)cc1Cl [Compound 15, (E)-5-(5-(4-Bromostyryl)-1,3,4-oxadiazol-2-yl)-2,4-dichlorobenzenesulfonamide] | 55 ± 2 | 
20 | 49 ± 1 | 73 ± 3 | 99 ± 1 |  |  |  | NS(=O)(=O)c1cc(-c2nnc(/C=C/c3ccc(O)cc3)o2)c(Cl)cc1Cl [Compound 17, (E)-2,4-Dichloro-5-(5-(4-hydroxystyryl)-1,3,4-oxadiazol-2-yl)benzenesulfonamide] | 100 ± 5 | 
21 | 13.7 ± 0.5 | 10 ± 0.3 | 117 ± 6 |  |  |  | N#Cc1ccc(/C=C/c2nnc(-c3cc(S(N)(=O)=O)c(Cl)cc3Cl)o2)cc1 [Compound 19, (E)-2,4-Dichloro-5-(5-(4-cyanostyryl)-1,3,4-oxadiazol-2-yl)benzenesulfonamide] | 102 ± 3 | 
22 | 18 ± 1 | 75 ± 2 | 90 ± 2 |  |  |  | NS(=O)(=O)c1cc(-c2nnc(/C=C/c3ccc(C(F)(F)F)cc3)o2)c(Cl)cc1Cl [Compound 21, (E)-2,4-Dichloro-5-(5-(4-(trifluoromethyl)styryl)-1,3,4-oxadiazol-2-yl)benzenesulfonamide] | 95 ± 4 | 
23 | 255 ± 13 | 640 ± 13 | 740 ± 37 |  |  |  | NS(=O)(=O)c1cc(-c2nnc(/C=C/c3ccncc3)o2)c(Cl)cc1Cl [Compound 23, (E)-2,4-Dichloro-5-(5-(2-(pyridin-4-yl)vinyl)-1,3,4-oxadiazol-2-yl)benzenesulfonamide] |  | 

Source: publication PMC7139731, “Synthesis, Anticancer Evaluation and Structure-Activity Analysis of Novel (E)- 5-(2-Arylvinyl)-1,3,4-oxadiazol-2-yl)benzenesulfonamides” (International Journal of Molecular Sciences, 2020)
